Data as given in patent US12708665B2, “Anti-IL-1β antibody therapy in arrhythmogenic cardiomyopathy (ACM)” (Beth Israel Deaconess Medical Center, Inc., priority 2019, dated 2026).

System: Dsg2^mut/mut mice
Assay: Cytokine arrays, cytokine expression in hearts of Dsg2^mut/mut mice treated with Bay 11-7082
Assay type: in vivo
Description: Quantitative data (mean±SEM; n=5) for expression of selected cytokines in hearts of vehicle-treated wildtype (WT) mice, Dsg2^mut/mut mice and Dsg2^mut/mut mice treated with Bay 11-7082. * P<0.05 compared to WT; †P<0.05 for treated vs. untreated Dsg2^mut/mut mice.
To characterize production of chemical mediators of the immune response in ACM, we used arrays to measure 111 different cytokines in the hearts of Dsg2^mut/mut mice and compared the amounts to those measured in the hearts of WT mice and Dsg2^mut/mut mice treated with Bay 11-7082. We observed substantial expression of multiple cytokines in the hearts of Dsg2^mut/mut mice. […] Powerful inflammatory mediators were expressed in Dsg2^mut/mut hearts including IL-1β (up by ~13-fold compared to WT hearts), IFNγ (~5-fold), IL-12 (~6-fold) and TNFα (~2-fold). […] Finally, there were increases in some molecules that fulfill anti-inflammatory roles such as IL-1Ra (up by ~4-fold).

[1] = cytokine expression level, mouse heart

Cc1ccc(S(=O)(=O)/C=C/C#N)cc1 [Bay11-7082]
LIX (CXCL5) level (ACM (Dsg2^mut/mut) mice treated with Bay 11-7082, result in words): markedly reduced | OPN expression (Dsg2^mut/mut mice treated with Bay 11-7082, result in words): reduced | Adiponectin, Dsg2^mut/mut (Bay11-7082) vs Dsg2^mut/mut [1]: <1 | Adiponectin, Dsg2^mut/mut (Bay11-7082) vs WT [1]: <1 | Amphiregulin, Dsg2^mut/mut (Bay11-7082) vs Dsg2^mut/mut [1]: <1 | Amphiregulin, Dsg2^mut/mut (Bay11-7082) vs WT [1]: <1 | Angiopoietin-1, Dsg2^mut/mut (Bay11-7082) vs Dsg2^mut/mut [1]: <1 | Angiopoietin-1, Dsg2^mut/mut (Bay11-7082) vs WT [1]: <1 | Angiopoietin-2, Dsg2^mut/mut (Bay11-7082) vs Dsg2^mut/mut [1]: 1-2 | Angiopoietin-2, Dsg2^mut/mut (Bay11-7082) vs WT [1]: <1 | Angiopoietin-like 3, Dsg2^mut/mut (Bay11-7082) vs Dsg2^mut/mut [1]: <1 | Angiopoietin-like 3, Dsg2^mut/mut (Bay11-7082) vs WT [1]: <1 | BAFF/BLyS/TNFSF13B, Dsg2^mut/mut (Bay11-7082) vs Dsg2^mut/mut [1]: <1 | BAFF/BLyS/TNFSF13B, Dsg2^mut/mut (Bay11-7082) vs WT [1]: <1 | C1qR1/CD93, Dsg2^mut/mut (Bay11-7082) vs Dsg2^mut/mut [1]: <1 | C1qR1/CD93, Dsg2^mut/mut (Bay11-7082) vs WT [1]: <1 | C-Reactive Protein/CRP, Dsg2^mut/mut (Bay11-7082) vs Dsg2^mut/mut [1]: <1 | C-Reactive Protein/CRP, Dsg2^mut/mut (Bay11-7082) vs WT [1]: <1 | CCL2/JE/MCP-1, Dsg2^mut/mut (Bay11-7082) vs Dsg2^mut/mut [1]: <1 | CCL2/JE/MCP-1, Dsg2^mut/mut (Bay11-7082) vs WT [1]: <1 | CCL3/CCL4/MIP-1a/B, Dsg2^mut/mut (Bay11-7082) vs Dsg2^mut/mut [1]: <1 | CCL3/CCL4/MIP-1a/B, Dsg2^mut/mut (Bay11-7082) vs WT [1]: <1 | CCL5/RANTES, Dsg2^mut/mut (Bay11-7082) vs Dsg2^mut/mut [1]: <1 | CCL5/RANTES, Dsg2^mut/mut (Bay11-7082) vs WT [1]: <1 | CCL6/C10, Dsg2^mut/mut (Bay11-7082) vs Dsg2^mut/mut [1]: <1 | CCL6/C10, Dsg2^mut/mut (Bay11-7082) vs WT [1]: <1 | CCL17/TARC, Dsg2^mut/mut (Bay11-7082) vs Dsg2^mut/mut [1]: <1 | CCL17/TARC, Dsg2^mut/mut (Bay11-7082) vs WT [1]: <1 | CCL19/MIP-3B, Dsg2^mut/mut (Bay11-7082) vs Dsg2^mut/mut [1]: <1 | CCL19/MIP-3B, Dsg2^mut/mut (Bay11-7082) vs WT [1]: <1 | CCL20/MIP-3a, Dsg2^mut/mut (Bay11-7082) vs Dsg2^mut/mut [1]: <1 | CCL20/MIP-3a, Dsg2^mut/mut (Bay11-7082) vs WT [1]: <1 | CCL21/6Ckine, Dsg2^mut/mut (Bay11-7082) vs Dsg2^mut/mut [1]: <1 | CCL21/6Ckine, Dsg2^mut/mut (Bay11-7082) vs WT [1]: <1 | CCL22/MDC, Dsg2^mut/mut (Bay11-7082) vs Dsg2^mut/mut [1]: <1 | CCL22/MDC, Dsg2^mut/mut (Bay11-7082) vs WT [1]: <1 | CD14, Dsg2^mut/mut (Bay11-7082) vs Dsg2^mut/mut [1]: 1-2 | CD14, Dsg2^mut/mut (Bay11-7082) vs WT [1]: <1 | CD40/TNFRSF5, Dsg2^mut/mut (Bay11-7082) vs Dsg2^mut/mut [1]: <1 | CD40/TNFRSF5, Dsg2^mut/mut (Bay11-7082) vs WT [1]: <1 | CD160, Dsg2^mut/mut (Bay11-7082) vs Dsg2^mut/mut [1]: <1 | CD160, Dsg2^mut/mut (Bay11-7082) vs WT [1]: <1 | CX3CL1/Fractalkine, Dsg2^mut/mut (Bay11-7082) vs Dsg2^mut/mut [1]: <1 | CX3CL1/Fractalkine, Dsg2^mut/mut (Bay11-7082) vs WT [1]: <1 | CXCL9/MIG, Dsg2^mut/mut (Bay11-7082) vs Dsg2^mut/mut [1]: <1 | CXCL9/MIG, Dsg2^mut/mut (Bay11-7082) vs WT [1]: <1 | CXCL13/BLC/BCA-1, Dsg2^mut/mut (Bay11-7082) vs Dsg2^mut/mut [1]: <1 | CXCL13/BLC/BCA-1, Dsg2^mut/mut (Bay11-7082) vs WT [1]: 2-4 | CXCL16, Dsg2^mut/mut (Bay11-7082) vs Dsg2^mut/mut [1]: <1 | CXCL16, Dsg2^mut/mut (Bay11-7082) vs WT [1]: <1 | Chemerin, Dsg2^mut/mut (Bay11-7082) vs Dsg2^mut/mut [1]: <1 | Chemerin, Dsg2^mut/mut (Bay11-7082) vs WT [1]: <1 | Chitinase 3-like 1, Dsg2^mut/mut (Bay11-7082) vs Dsg2^mut/mut [1]: <1 | Chitinase 3-like 1, Dsg2^mut/mut (Bay11-7082) vs WT [1]: <1 | Coagulation Factor III/Tissue Factor, Dsg2^mut/mut (Bay11-7082) vs Dsg2^mut/mut [1]: <1 | Coagulation Factor III/Tissue Factor, Dsg2^mut/mut (Bay11-7082) vs WT [1]: <1
